The record followed here is publication PMC4441267.

A short description of data set [1]: CuAAC macrocyclisation to 1,4-triazole (CuI 2 eq, DIPEA 3 eq), Boc retained. The conditions noted are these: THF (reflux), 1.2 mM, 66.0 °C, 18.0 h.
The nature of data set [2]: CuAAC macrocyclisation of azide/terminal alkyne linear peptidomimetics to 1,4-triazole (CuI 2 eq, DIPEA 3 eq, Ar-degassed), then Boc removal (TMSCl/MeOH GP4; HCl/dioxane GP5 for A13w, J13w). Conditions: THF (reflux), 1.2 mM, 66.0 °C, 18.0 h, 2 steps.

`COC(=O)[C@@H]1CCCCn2cc(nn2)CNC(=O)NCC[C@H](NC(=O)OC(C)(C)C)C(=O)N[C@H](C(=O)OC)CCC(=O)N1` [Boc-Dab(CONH-propargyl)-Glu(gamma-Lys(N3)-OMe)-OMe] had a ring closure, isolated yield in data set [1] (from C#CCNC(=O)NCC[C@H](NC(=O)OC(C)(C)C)C(=O)N[C@@H](CCC(=O)N[C@@H](CCCCN=[N+]=[N-])C(=O)OC)C(=O)OC, 22-membered ring) of 67%.
`COC(=O)[C@@H]1CCCCn2cc(nn2)CNC(=O)NC[C@H](NC(=O)OC(C)(C)C)C(=O)N[C@H](C(=O)OC)CCC(=O)N1` [Boc-Dap(CONH-propargyl)-Glu(gamma-Lys(N3)-OMe)-OMe] showed a ring closure, isolated yield in data set [1] (from C#CCNC(=O)NC[C@H](NC(=O)OC(C)(C)C)C(=O)N[C@@H](CCC(=O)N[C@@H](CCCCN=[N+]=[N-])C(=O)OC)C(=O)OC, 21-membered ring) of 99%.
The compound `COC(=O)[C@@H]1CCCCn2cc(nn2)CCCC(=O)NCCCC[C@H](NC(=O)OC(C)(C)C)C(=O)N[C@H](C(=O)OC)CCC(=O)N1` [Boc-Lys(5-hexynoyl)-Glu(gamma-Lys(N3)-OMe)-OMe] came in with a ring closure, isolated yield in data set [1] (from C#CCCCC(=O)NCCCC[C@H](NC(=O)OC(C)(C)C)C(=O)N[C@@H](CCC(=O)N[C@@H](CCCCN=[N+]=[N-])C(=O)OC)C(=O)OC, 25-membered ring) of 70%.
For the compound `COC(=O)[C@@H]1CCCCn2cc(nn2)CCCC(=O)NCCC[C@H](NC(=O)OC(C)(C)C)C(=O)N[C@H](C(=O)OC)CCC(=O)N1` [Boc-Orn(5-hexynoyl)-Glu(gamma-Lys(N3)-OMe)-OMe], the ring closure, isolated yield in data set [1] (from C#CCCCC(=O)NCCC[C@H](NC(=O)OC(C)(C)C)C(=O)N[C@@H](CCC(=O)N[C@@H](CCCCN=[N+]=[N-])C(=O)OC)C(=O)OC, 24-membered ring) amounted to 99%.
On to `COC(=O)[C@@H]1CCCCn2cc(nn2)CNC(=O)NCCCC[C@H](NC(=O)OC(C)(C)C)C(=O)N[C@H](C(=O)OC)CCC(=O)N1` [Boc-Lys(CONH-propargyl)-Glu(gamma-Lys(N3)-OMe)-OMe], for which the ring closure, isolated yield in data set [1] (from C#CCNC(=O)NCCCC[C@H](NC(=O)OC(C)(C)C)C(=O)N[C@@H](CCC(=O)N[C@@H](CCCCN=[N+]=[N-])C(=O)OC)C(=O)OC, 24-membered ring) was found to be 62%.
The compound `COC(=O)[C@@H]1CCCCn2cc(nn2)CCC(=O)NCCC[C@H](NC(=O)OC(C)(C)C)C(=O)N[C@H](C(=O)OC)CCC(=O)N1` [Boc-Orn(4-pentynoyl)-Glu(gamma-Lys(N3)-OMe)-OMe] had a ring closure, isolated yield in data set [1] (from C#CCCC(=O)NCCC[C@H](NC(=O)OC(C)(C)C)C(=O)N[C@@H](CCC(=O)N[C@@H](CCCCN=[N+]=[N-])C(=O)OC)C(=O)OC, 23-membered ring) of 71%.
With `COC(=O)[C@@H]1CCCCn2cc(nn2)CCC(=O)NCCCC[C@H](NC(=O)OC(C)(C)C)C(=O)N[C@H](C(=O)OC)CCC(=O)N1` [Boc-Lys(4-pentynoyl)-Glu(gamma-Lys(N3)-OMe)-OMe], the ring closure, isolated yield in data set [1] (from C#CCCC(=O)NCCCC[C@H](NC(=O)OC(C)(C)C)C(=O)N[C@@H](CCC(=O)N[C@@H](CCCCN=[N+]=[N-])C(=O)OC)C(=O)OC, 24-membered ring) turned out to be 69%.
In data set [2] (from C#CCCCC(=O)NCCCC[C@H](NC(=O)OC(C)(C)C)C(=O)N[C@@H](CCCN=[N+]=[N-])C(=O)OC, 19-membered ring), `COC(=O)[C@@H]1CCCn2cc(nn2)CCCC(=O)NCCCC[C@H](NC(=O)OC(C)(C)C)C(=O)N1` [Boc-Lys(5-hexynoyl)-Orn(N3)-OMe] registered a ring closure, yield over several steps of 40%.
`COC(=O)[C@@H]1CCCn2cc(nn2)CNC(=O)NCCC[C@H](NC(=O)OC(C)(C)C)C(=O)N1` [Boc-Orn(CONH-propargyl)-Orn(N3)-OMe] showed a ring closure, yield over several steps in data set [2] (from C#CCNC(=O)NCCC[C@H](NC(=O)OC(C)(C)C)C(=O)N[C@@H](CCCN=[N+]=[N-])C(=O)OC, 17-membered ring) of 99%.
As to `COC(=O)[C@@H]1CCCCn2cc(nn2)CCC(=O)NC[C@H](NC(=O)OC(C)(C)C)C(=O)N1` [Boc-Dap(4-pentynoyl)-Lys(N3)-OMe], the ring closure, yield over several steps in data set [2] (from C#CCCC(=O)NC[C@H](NC(=O)OC(C)(C)C)C(=O)N[C@@H](CCCCN=[N+]=[N-])C(=O)OC, 16-membered ring) was 59%.
With `COC(=O)[C@@H]1CNC(=O)[C@H](Cc2ccccc2)n2cc(nn2)CCC(=O)NCCCC[C@H](NC(=O)OC(C)(C)C)C(=O)N1` [Boc-Lys(4-pentynoyl)-Dap(N3-Phe)-OMe], the ring closure, yield over several steps in data set [2] (from C#CCCC(=O)NCCCC[C@H](NC(=O)OC(C)(C)C)C(=O)N[C@@H](CNC(=O)[C@H](Cc1ccccc1)N=[N+]=[N-])C(=O)OC, 19-membered ring) was determined as 98%.
Regarding `COC(=O)[C@@H]1CCCCn2cc(nn2)CCC(=O)NC[C@H](NC(=O)OC(C)(C)C)C(=O)N[C@H](C(=O)OC)CCC(=O)N1` [Boc-Dap(4-pentynoyl)-Glu(gamma-Lys(N3)-OMe)-OMe], the ring closure, isolated yield in data set [1] (from C#CCCC(=O)NC[C@H](NC(=O)OC(C)(C)C)C(=O)N[C@@H](CCC(=O)N[C@@H](CCCCN=[N+]=[N-])C(=O)OC)C(=O)OC, 21-membered ring) was determined as 94%.
Regarding `COC(=O)[C@@H]1CCCCNC(=O)[C@H](Cc2ccccc2)n2cc(nn2)CCC(=O)NCC[C@H](NC(=O)OC(C)(C)C)C(=O)N1` [Boc-Dab(4-pentynoyl)-Lys(N3-Phe)-OMe], the ring closure, yield over several steps in data set [2] (from C#CCCC(=O)NCC[C@H](NC(=O)OC(C)(C)C)C(=O)N[C@@H](CCCCNC(=O)[C@H](Cc1ccccc1)N=[N+]=[N-])C(=O)OC, 20-membered ring) stood at 91%.
As for `COC(=O)[C@@H]1CNC(=O)[C@H](Cc2ccccc2)n2cc(nn2)CNC(=O)NCC[C@H](NC(=O)OC(C)(C)C)C(=O)N1` [Boc-Dab(CONH-propargyl)-Dap(N3-Phe)-OMe], the ring closure, yield over several steps in data set [2] (from C#CCNC(=O)NCC[C@H](NC(=O)OC(C)(C)C)C(=O)N[C@@H](CNC(=O)[C@H](Cc1ccccc1)N=[N+]=[N-])C(=O)OC, 17-membered ring) worked out at 64%.
In turn, `COC(=O)[C@@H]1CCCCn2cc(nn2)CCCC(=O)Nc2ccc(cc2)C[C@H](NC(=O)OC(C)(C)C)C(=O)N[C@H](C(=O)OC)CCC(=O)N1` [Boc-Phe(4-NH-5-hexynoyl)-Glu(gamma-Lys(N3)-OMe)-OMe] had a ring closure, isolated yield in data set [1] (from C#CCCCC(=O)Nc1ccc(C[C@H](NC(=O)OC(C)(C)C)C(=O)N[C@@H](CCC(=O)N[C@@H](CCCCN=[N+]=[N-])C(=O)OC)C(=O)OC)cc1, 26-membered ring) of 12%.
Regarding `COC(=O)[C@@H]1CCCn2cc(nn2)CNC(=O)NC[C@H](NC(=O)OC(C)(C)C)C(=O)N[C@H](C(=O)OC)CCC(=O)N1` [Boc-Dap(CONH-propargyl)-Glu(gamma-Orn(N3)-OMe)-OMe], the ring closure, yield over several steps in data set [2] (from C#CCNC(=O)NC[C@H](NC(=O)OC(C)(C)C)C(=O)N[C@@H](CCC(=O)N[C@@H](CCCN=[N+]=[N-])C(=O)OC)C(=O)OC, 20-membered ring) was determined as 78%.
On to `COC(=O)[C@@H]1CCCCn2cc(nn2)CCCC(=O)NC[C@H](NC(=O)OC(C)(C)C)C(=O)N[C@H](C(=O)OC)CCC(=O)N1` [Boc-Dap(5-hexynoyl)-Glu(gamma-Lys(N3)-OMe)-OMe], for which the ring closure, isolated yield in data set [1] (from C#CCCCC(=O)NC[C@H](NC(=O)OC(C)(C)C)C(=O)N[C@@H](CCC(=O)N[C@@H](CCCCN=[N+]=[N-])C(=O)OC)C(=O)OC, 22-membered ring) worked out at 69%.
`COC(=O)[C@@H]1CNC(=O)[C@H](Cc2ccccc2)n2cc(nn2)CCC(=O)NCC[C@H](NC(=O)OC(C)(C)C)C(=O)N1` [Boc-Dab(4-pentynoyl)-Dap(N3-Phe)-OMe] had a ring closure, yield over several steps in data set [2] (from C#CCCC(=O)NCC[C@H](NC(=O)OC(C)(C)C)C(=O)N[C@@H](CNC(=O)[C@H](Cc1ccccc1)N=[N+]=[N-])C(=O)OC, 17-membered ring) of 81%.
Regarding `COC(=O)[C@@H]1CCCCNC(=O)[C@H](Cc2ccccc2)n2cc(nn2)CCC(=O)NCCC[C@H](NC(=O)OC(C)(C)C)C(=O)N1` [Boc-Orn(4-pentynoyl)-Lys(N3-Phe)-OMe], the ring closure, yield over several steps in data set [2] (from C#CCCC(=O)NCCC[C@H](NC(=O)OC(C)(C)C)C(=O)N[C@@H](CCCCNC(=O)[C@H](Cc1ccccc1)N=[N+]=[N-])C(=O)OC, 21-membered ring) was determined as 88%.
The compound `COC(=O)[C@@H]1CCCCn2cc(nn2)CNC(=O)NCCC[C@H](NC(=O)OC(C)(C)C)C(=O)N[C@H](C(=O)OC)CCC(=O)N1` [Boc-Orn(CONH-propargyl)-Glu(gamma-Lys(N3)-OMe)-OMe] returned a ring closure, isolated yield in data set [1] (from C#CCNC(=O)NCCC[C@H](NC(=O)OC(C)(C)C)C(=O)N[C@@H](CCC(=O)N[C@@H](CCCCN=[N+]=[N-])C(=O)OC)C(=O)OC, 23-membered ring) of 60%.
`COC(=O)[C@@H]1CNC(=O)[C@H](Cc2ccccc2)n2cc(nn2)CCC(=O)NCCC[C@H](NC(=O)OC(C)(C)C)C(=O)N1` [Boc-Orn(4-pentynoyl)-Dap(N3-Phe)-OMe] came in with a ring closure, yield over several steps in data set [2] (from C#CCCC(=O)NCCC[C@H](NC(=O)OC(C)(C)C)C(=O)N[C@@H](CNC(=O)[C@H](Cc1ccccc1)N=[N+]=[N-])C(=O)OC, 18-membered ring) of 45%.
`COC(=O)[C@@H]1CNC(=O)[C@H](Cc2ccccc2)n2cc(nn2)CNC(=O)NCCC[C@H](NC(=O)OC(C)(C)C)C(=O)N1` [Boc-Orn(CONH-propargyl)-Dap(N3-Phe)-OMe] came in with a ring closure, yield over several steps in data set [2] (from C#CCNC(=O)NCCC[C@H](NC(=O)OC(C)(C)C)C(=O)N[C@@H](CNC(=O)[C@H](Cc1ccccc1)N=[N+]=[N-])C(=O)OC, 18-membered ring) of 96%.
